From ChEMBL document CHEMBL4651402, “Screening of ~5500 FDA-approved drugs and clinical candidates for anti-SARS-CoV-2 activity” (2021)

System: SARS-CoV-2
Test: microbe, parasite or virus in culture
Conditions: Severe acute respiratory syndrome coronavirus 2, Vero C1008, 48 h

Structure (SMILES) | IC50 | IC50 (read-out: pIC50 (converted))
CC(=O)O[C@@H]1C[C@H]2C(C)(C)C(=O)C=C[C@]2(C)[C@H]2CC[C@@]3(C)[C@H](c4ccoc4)OC(=O)[C@H]4O[C@]43[C@@]21C [GEDUNIN] | > 20 µM | > 20 µM
C/C(O)=C(\C#N)C(=O)Nc1ccc(C(F)(F)F)cc1 [TERIFLUNOMIDE] | > 20 µM | > 20 µM
CC1(C)SC2C(NC(=O)C(NC(=O)N3CCNC3=O)c3ccccc3)C(=O)N2C1C(=O)O (stereo not given) | > 20 µM | > 20 µM
Cc1noc(NS(=O)(=O)c2ccc(N)cc2)c1C [SULFISOXAZOLE] | > 20 µM | > 20 µM
NC(N)=O [UREA] | > 20 µM | > 20 µM
CC(=O)OC[C@H]1O[C@@H](n2ncc(=O)[nH]c2=O)[C@H](OC(C)=O)[C@@H]1OC(C)=O [AZARIBINE] | > 20 µM | > 20 µM
O=C1c2ccccc2C(=O)C1c1ccccc1 [PHENINDIONE] | > 20 µM | > 20 µM
NC1=NCC(CN2CCN(c3ccccc3)CC2)O1 (stereo not given) | > 20 µM | > 20 µM
CC12C=CC(=O)C=C1CCC1C3CC4Cc5ccccc5CC4(C(=O)CO)C3(C)CC(O)C12F (stereo not given) | > 20 µM | > 20 µM
Clc1ccc(CO[C@H](Cn2ccnc2)c2ccc(Cl)cc2Cl)c(Cl)c1 | > 20 µM | > 20 µM
CN[C@H](CC(C)C)C(=O)N[C@H]1C(=O)N[C@@H](CC(N)=O)C(=O)N[C@H]2C(=O)N[C@H]3C(=O)N[C@H](C(=O)N[C@H](C(=O)O)c4cc(O)cc(O)c4-c4cc3ccc4O)[C@H](O)c3ccc(c(Cl)c3)Oc3cc2cc(c3O[C@@H]2O[C@H](CO)[C@@H](O)[C@H](O)[C@H]2O[C@H]2C[C@](C)(N)[C@H](O)[C@H](C)O2)Oc2ccc(cc2Cl)[C@H]1O [VANCOMYCIN] | > 20 µM | > 20 µM
CC(C)N(CCC(c1ccccc1)c1ccccc1)C(C)C [DIISOPROMINE] | > 20 µM | > 20 µM
Cc1oc(-c2ccccc2)nc1CCOc1ccc(CC2C(=O)NOC2=O)cc1 (stereo not given) [REGLITAZAR] | > 20 µM | > 20 µM
CC[C@H]1C(C)=NN=C(c2ccc(OC)c(OC)c2)c2cc(OC)c(OC)cc21 [DEXTOFISOPAM] | > 20 µM | > 20 µM
CCCCN(CCCC)C(C(N)=O)c1ccc(OC)cc1 (stereo not given) [AMBUCETAMIDE] | > 20 µM | > 20 µM
O=C(O[C@@H]1Cc2c(O)cc(O)cc2O[C@@H]1c1cc(O)c(=O)c2c(O)c(O)cc([C@H]3Oc4cc(O)cc(O)c4C[C@H]3OC(=O)c3cc(O)c(O)c(O)c3)c2c1)c1cc(O)c(O)c(O)c1 [THEAFLAVIN DIGALLATE] | > 20 µM | > 20 µM
COc1cc(OC)c2c(=O)[nH]c(-c3cc(C)c(OCCO)c(C)c3)nc2c1 [APABETALONE] | > 20 µM | > 20 µM
Cc1nc(-c2ccc(C(F)(F)F)cc2)sc1C(=O)NCc1ccc(OC(C)(C)C(=O)O)cc1 [GW590735] | > 20 µM | > 20 µM

Structure (SMILES) | IC50 | IC50 (read-out: pIC50 (converted))
C[n+]1ccccc1C=NO [PRALIDOXIME] | > 20 µM | > 20 µM
C[C@H]1C[C@H]2[C@@H]3CCC4=CC(=O)C=C[C@]4(C)[C@@]3(Cl)[C@@H](O)C[C@]2(C)[C@@]1(O)C(=O)CO [BECLOMETHASONE] | > 20 µM | > 20 µM
CCCCC[C@H](O)/C=C/[C@H]1[C@H](O)CC(=O)[C@@H]1CCCCCCC(=O)O [ALPROSTADIL] | > 20 µM | > 20 µM
Cc1c(N)cccc1Cn1ccc(OCCc2cccs2)cc1=O [CG-400549] | > 20 µM | > 20 µM
NC(=O)c1cn(Cc2c(F)cccc2F)nn1 [RUFINAMIDE] | > 20 µM | > 20 µM
O=C(O)c1ccccc1C(=O)Nc1ccc(S(=O)(=O)Nc2nccs2)cc1 [PHTHALYLSULFATHIAZOLE] | > 20 µM | > 20 µM
C[C@]12CC[C@H]3C(=CCc4cc(O)ccc43)[C@@H]1CCC2=O [EQUILIN] | > 20 µM | > 20 µM
COc1cc2c(cc1-c1cc3cc4ccoc4cc3oc1=O)OCO2 [PACHYRRIZINE] | > 20 µM | > 20 µM
c1cnc2c(c1)CNC2 [6,7-DIHYDRO-5H-PYRROLO[3,4-B]PYRIDINE] | > 20 µM | > 20 µM
C[C@H]1C[C@H]2[C@@H]3CCC4=CC(=O)C=C[C@]4(C)[C@@]3(F)[C@@H](O)C[C@]2(C)[C@@]1(O)C(=O)CCl [CLOBETASOL] | > 20 µM | > 20 µM
CC(C)(C)NCC(O)COc1ccccc1C#N (stereo not given) [BUNITROLOL] | > 20 µM | > 20 µM
CCC(CC)[C@@H](c1ccc(Nc2nc3ccccc3s2)cc1)n1cncn1 | > 20 µM | > 20 µM
Cc1c(C)c2ccc(OCCCN3CCN(Cc4ccc(Cl)cc4)CC3)cc2oc1=O | > 20 µM | > 20 µM
CN(C)CCOc1ccc(/C(=C(\CCCl)c2ccccc2)c2ccccc2)cc1 | > 20 µM | > 20 µM
NC(=O)C(CCN1CCN2CCCC2C1)(c1ccccc1)c1ccccc1 (stereo not given) [PIROLAZAMIDE] | > 20 µM | > 20 µM
CC(=O)Nc1ccc(S(=O)(=O)c2ccc(NC(C)=O)cc2)cc1 [ACEDAPSONE] | > 20 µM | > 20 µM
O=C1OC(CN2CCOCC2)CN1/N=C/c1ccc([N+](=O)[O-])o1 (stereo not given) [FURALTADONE] | > 20 µM | > 20 µM
